In patent US12565494B2, “Inhibitors of human respiratory syncytial virus and metapneumovirus” (priority 2022, dated 2026):
Where two headings read alike, the source gives them in different places.

Key:
RSV-A2-GFP virus = assay: microbe, parasite or virus in culture; assay type: cell-based, Human Respiratory Syncytial Virus; conditions: Calu-1 cells, RSV-A2-GFP MOI=1.2, 96 hrs, GFP-expressing cells counted
Method: To set up the assay, ARF vials were thawed in a 37° C. water bath and a control compound was resuspended in assay media DMEM (Dulbecco's Modified Eagle Medium) containing 2% FBS, 100 U/ml Penicillin-Streptomycin.
GFP sequence was derived from pJTI™ R4 Dest CMV N-EmGFP pA Vector (Invitrogen) and was cloned into the intergenic sequence between wild-type RSV-A2 P and M genes using standard recombineering techniques. Recombinant RSV-A2-GFP was propagated in Hep2 cells (human cells contain HeLa marker chromosomes and were derived via HeLa contamination, ATCC CCL-23) with a Multiplicity of Infection (MOI) of 0.1. Virus was harvested 3 days after infection by collecting all culture material and then freeze-thawing the mixture for 5 minutes. Working virus stocks were generated by thawing frozen viral cultures in 37° C. water bath, which were centrifuged at 218 g for 15 min at 4° C. 1/10 of 10×SPG (Biological Industries 06-3061-01-5A) were added and then mixed. The supernatant was aliquoted, frozen in liquid nitrogen, and then transferred to a −80° C. freezer for storage. Virus titer was determined by automated plaque assay in HEp-2 cells following methods described previously (Wen Z. et al.; 2019).
Calu-1 cells were purchased from ATCC (Cat #HTB-54) and were expanded in growth media (DMEM containing 10% FBS, 100 U/ml Penicillin-Streptomycin). To make ARF, cell culture media was removed and discarded and the cell layer was briefly rinsed with PBS to remove serum. 2.5 mL of TrypLE Express solution were added and cells incubated until dislodged, to which growth media was added and the cells were resuspended by gentle pipetting. Cells were counted for concentration and viability as determined by ViCell. Cells were centrifuged at RT, 300 g for 5 minutes to pellet cells. The supernatant was gently aspirated and the pellet was flicked to loosen cells. Cells were resuspended in an appropriate volume of freezing medium (DMEM containing 10% DMSO, 10% FBS, 100 U/ml Penicillin-Streptomycin) to achieve a concentration of 5×10^6 cells/mL. 1 mL aliquots of the cell suspension were transferred to freezing vials. The vials were put into an upright container in a −80° C. freezer overnight before transferring vials to liquid nitrogen for storage
Assay ready freeze-down (ARF, generation described separately) Calu-1 cells (ATCC HTB-54) were used. Compound plates were prepared by dispensing compounds dissolved in DMSO into the wells of a 384 well Corning® 3985 plate with an ECHO acoustic dispenser and compounds were tested in 10-point serial 3-fold dilution. […] To set up the assay, ARF vial(s) were thawed in a 37° C. water bath and were then resuspended into assay media (DMEM containing 2% FBS, 100 U/ml Penicillin-Streptomycin). Cells were counted using default parameters on ViCell and diluted to 20,000 cells/mL in assay media. RSV-A2-GFP virus was added to cells at 24,000 pfu/ml (MOI=1.2) and mixed by gentle inversion. 10 μL/well of 100% DMSO was dispensed as CellTiter-Glo (CTG) assay Max_E controls wells. The cells were dispensed at 50 μL/well using Bravo with 50 μL filtered tips into compound plates. Plates were covered with MicroClime lids, loaded with 7.5 mL of assay media to minimize evaporation, and were incubated at 37° C. and 5% CO2 for 96 hrs. Following incubation, distinct, GFP-expressing cells were counted using an Acumen imaging system with appropriate settings. A same-well CTG assay was performed by adding 10 μL/well reconstituted CellTiter-Glo reagent (Promega G7573) and plates were read on PerkinElmer Envision according to manufacturer's instructions. Raw data were loaded and analyzed in ActivityBase. Antiviral IC50 and cytotoxicity CC50 values were determined using a 4 parameter logistic fit based on the Levenberg-Marquardt algorithm. Model: 205-4 Parameter Logistic.

hMPV-GFP virus = assay: microbe, parasite or virus in culture; assay type: cell-based, Human Metapneumovirus; conditions: VERO cells, hMPV-GFP MOI=1.25, 48 hrs, GFP-expressing cells counted
Method: GFP expressing rgHMPV #3 p3 was generated in Dr. Buchholz's lab (Biacchesi S. et al., J Virol. 2007 June; 81(11): 6057-6067) and propagated in VERO cells (ATCC Cat #CCL-81) with a Multiplicity of Infection (MOI) of 0.1. Virus was harvested 4 days after infection by collecting cultured material and was freeze-thaw cycled in liquid nitrogen twice. Working virus stocks were generated from thawing frozen samples in 37° C. water bath, which were centrifuged at 218 g for 15 min at 4° C. 1/10 of 10×SPG (Biological Industries 06-3061-01-5A) were added and then mixed. The supernatant was aliquoted, frozen in liquid nitrogen, and then transferred to a −80° C. freezer for storage. Virus titer was determined by performing titration test in 96-well plates and calculate approximate virus titer using GFP event/well data.
Compound plates were prepared by dispensing compounds dissolved in DMSO into wells of a 384 well Corning 3985 polystyrene flat clear bottom optical imaging microplate (202.5 nL/well) using an ECHO acoustic dispenser. Each compound was tested in 10-point serial 3-fold dilution (typical final concentrations: 40,300 nM-2 nM). […] Continuous culture of VERO cells was maintained in complete culture media (OptiMEM supplemented with 2 mM GlutaMAX™ and 100 U/ml Penicillin-Streptomycin). To set up the assay, VERO cells were trypsinized with 0.25% Trypsin-EDTA until cells were dislodged, then cells were re-suspended with 1 mL FBS. Cells were spundown at 300 g for 5 minutes and cells were washed twice with culture media and counted using default parameters on ViCell. Cells were then diluted to 100,000 cells/mL (5,000 cells/50 μL) in complete culture media+TrypLE Select (80 μL/mL). hMPV-GFP virus was added to cells at 125,000 pfu/mL (MOI=1.25) and were mixed by gentle inversion. 10 μL/well of 100% DMSO was dispensed to CellTiter-Glo (CTG) assay Max_E controls wells. Cells were dispensed at 50 μL/well using Bravo and 50 μL filtered tips into compound plates. Plates were covered with MicroClime lids and loaded with 7.5 mL of assay media to minimize evaporation. Plates were lightly shaken for 10 minutes at room temperature and then incubated at 37° C. and 5% CO2 for 48 hrs. Following incubation, distinct GFP-expressing cells were counted using an Acumen imaging system with appropriate settings. A same-well CTG assay was performed by adding 10 μL/well reconstituted CellTiter-Glo reagent (Promega G7573) and plates were read on PerkinElmer Envision according to manufacturer's instructions. Raw data were loaded and analyzed in ActivityBase. Antiviral IC50 and cytotoxicity CC50 values were determined using a 4 parameter logistic fit based on the Levenberg-Marquardt algorithm. Model: 205-4 Parameter Logistic.

[1] = Table I Summary of Activities for RSV, read-out: RSV EC50
[2] = Table II Summary of Activities for hMPV, read-out: RSV EC50
[3] = human respiratory syncytial virus, Calu-1, 96 h, read-out: RSV EC50, Table I Summary of Activities for RSV
[4] = Vero, 48 h, read-out: RSV EC50, Table II Summary of Activities for hMPV

Cc1nc(-c2ccon2)sc1C(=O)N1C[C@@H]2[C@H](C1)[C@H]2Oc1cc(C(C)(C)N)cc(-c2ccc(F)cc2)n1 [Example 5, ((1R,5S,6s)-6-((4-(2-aminopropan-2-yl)-6-(4-fluorophenyl)pyridin-2-yl)oxy)-3-azabicyclo[3.1.0]hexan-3-yl)(2-(isoxazol-3-yl)-4-methylthiazol-5-yl)methanone]
EC50 (RSV-A2-GFP virus; [1]): < 0.01 µM | EC50 (hMPV-GFP virus; [2]): 0.01 to 0.1 µM

Cc1nc(-c2nccs2)sc1C(=O)N1C[C@@H]2[C@H](C1)[C@H]2Oc1cc(C(C)(C)N)cc(-c2ccc(F)cc2)n1 [Example 6, ((1R,5S,6s)-6-((4-(2-aminopropan-2-yl)-6-(4-fluorophenyl)pyridin-2-yl)oxy)-3-azabicyclo[3.1.0]hexan-3-yl)(4-methyl-[2,2′-bithiazol]-5-yl)methanone]
EC50 (RSV-A2-GFP virus; [1]): < 0.01 µM | EC50 (hMPV-GFP virus; [2]): > 0.1 µM

Cc1nc(-c2cscn2)sc1C(=O)N1C[C@@H]2[C@H](C1)[C@H]2Oc1cc(C(C)(C)N)cc(-c2ccc(F)cc2)n1 [Example 7, ((1R,5S,6s)-6-((4-(2-aminopropan-2-yl)-6-(4-fluorophenyl)pyridin-2-yl)oxy)-3-azabicyclo[3.1.0]hexan-3-yl)(4-methyl-[2,4′-bithiazol]-5-yl)methanone]
EC50 (RSV-A2-GFP virus; [1]): < 0.01 µM | EC50 (hMPV-GFP virus; [2]): 0.01 to 0.1 µM

CC(C)(N)c1cc(O[C@H]2[C@@H]3CN(C(=O)c4sc(-c5cscn5)nc4C4CC4)C[C@@H]32)nc(-c2ccc(F)cc2)c1 [Example 8, ((1R,5S,6s)-6-((4-(2-aminopropan-2-yl)-6-(4-fluorophenyl)pyridin-2-yl)oxy)-3-azabicyclo[3.1.0]hexan-3-yl)(4-cyclopropyl-[2,4′-bithiazol]-5-yl)methanone]
EC50 (RSV-A2-GFP virus; [1]): < 0.01 µM | EC50 (hMPV-GFP virus; [2]): 0.01 to 0.1 µM

Cc1nc(-c2ncc[nH]2)sc1C(=O)N1C[C@@H]2[C@H](C1)[C@H]2Oc1cc(C(C)(C)N)cc(-c2ccc(F)cc2)n1 [Example 9, (2-(1H-imidazol-2-yl)-4-methylthiazol-5-yl)((1R,5S,6s)-6-((4-(2-aminopropan-2-yl)-6-(4-fluorophenyl)pyridin-2-yl)oxy)-3-azabicyclo[3.1.0]hexan-3-yl)methanone]
EC50 (RSV-A2-GFP virus; [1]): < 0.01 µM | EC50 (hMPV-GFP virus; [2]): > 0.1 µM

Cc1nc(-c2ncn[nH]2)sc1C(=O)N1C[C@@H]2[C@H](C1)[C@H]2Oc1cc(C(C)(C)N)cc(-c2ccc(F)cc2)n1 [Example 10, ((1R,5S,6s)-6-((4-(2-aminopropan-2-yl)-6-(4-fluorophenyl)pyridin-2-yl)oxy)-3-azabicyclo[3.1.0]hexan-3-yl)(4-methyl-2-(1H-1,2,4-triazol-5-yl)thiazol-5-yl)methanone]
EC50 (RSV-A2-GFP virus; [1]): < 0.01 µM | EC50 (hMPV-GFP virus; [2]): > 0.1 µM

CCc1nc(-c2nc[nH]n2)sc1C(=O)N1C[C@@H]2[C@H](C1)[C@H]2Oc1cc(C(C)(C)N)cc(-c2ccc(F)cc2)n1 [Example 11, ((1R,5S,6s)-6-((4-(2-aminopropan-2-yl)-6-(4-fluorophenyl)pyridin-2-yl)oxy)-3-azabicyclo[3.1.0]hexan-3-yl)(4-ethyl-2-(1H-1,2,4-triazol-3-yl)thiazol-5-yl)methanone]
EC50 (RSV-A2-GFP virus; [1]): < 0.01 µM | EC50 (hMPV-GFP virus; [2]): > 0.1 µM

Cc1nc(-c2cccs2)sc1C(=O)N1C[C@@H]2[C@H](C1)[C@H]2Oc1cc(C(C)(C)N)cc(-c2ccc(F)cc2)n1 [Example 12, ((1R,5S,6s)-6-((4-(2-aminopropan-2-yl)-6-(4-fluorophenyl)pyridin-2-yl)oxy)-3-azabicyclo[3.1.0]hexan-3-yl)(4-methyl-2-(thiophen-2-yl)thiazol-5-yl)methanone]
EC50 (RSV-A2-GFP virus; [1]): < 0.01 µM | EC50 (hMPV-GFP virus; [2]): > 0.1 µM

Cc1nc(-c2ccco2)sc1C(=O)N1C[C@@H]2[C@H](C1)[C@H]2Oc1cc(C(C)(C)N)cc(-c2ccc(F)cc2)n1 [Example 13, ((1R,5S,6s)-6-((4-(2-aminopropan-2-yl)-6-(4-fluorophenyl)pyridin-2-yl)oxy)-3-azabicyclo[3.1.0]hexan-3-yl)(2-(furan-2-yl)-4-methylthiazol-5-yl)methanone]
EC50 (RSV-A2-GFP virus; [1]): < 0.01 µM | EC50 (hMPV-GFP virus; [2]): 0.01 to 0.1 µM

CC(C)(N)c1cc(O[C@H]2[C@@H]3CN(C(=O)c4sc(-c5cscn5)nc4C(F)F)C[C@@H]32)nc(-c2ccc(F)cc2)c1 [Example 14]
EC50 (RSV-A2-GFP virus; [3]): < 0.01 µM | EC50 (hMPV-GFP virus; [4]): > 0.1 µM

CC(C)(N)c1cc(O[C@H]2[C@@H]3CN(C(=O)c4sc(-c5ncco5)nc4C(F)F)C[C@@H]32)nc(-c2ccc(F)cc2)c1 [Example 15, ((1R,5S,6s)-6-((4-(2-aminopropan-2-yl)-6-(4-fluorophenyl)pyridin-2-yl)oxy)-3-azabicyclo[3.1.0]hexan-3-yl)(4-(difluoromethyl)-2-(oxazol-2-yl)thiazol-5-yl)methanone]
EC50 (RSV-A2-GFP virus; [1]): < 0.01 µM | EC50 (hMPV-GFP virus; [2]): > 0.1 µM

Cn1nc(-c2ncco2)cc1C(=O)N1C[C@@H]2[C@H](C1)[C@H]2Oc1cc(C(C)(C)N)cc(-c2ccc(F)cc2)n1 [Example 17, ((1R,5S,6s)-6-((4-(2-aminopropan-2-yl)-6-(4-fluorophenyl)pyridin-2-yl)oxy)-3-azabicyclo[3.1.0]hexan-3-yl)(1-methyl-3-(oxazol-2-yl)-1H-pyrazol-5-yl)methanone]
EC50 (RSV-A2-GFP virus; [3]): < 0.01 µM | EC50 (hMPV-GFP virus; [4]): 0.01 to 0.1 µM

Cn1nc(-c2cscn2)cc1C(=O)N1C[C@@H]2[C@H](C1)[C@H]2Oc1cc(C(C)(C)N)cc(-c2ccc(F)cc2)n1 [Example 18, ((1R,5S,6s)-6-((4-(2-aminopropan-2-yl)-6-(4-fluorophenyl)pyridin-2-yl)oxy)-3-azabicyclo[3.1.0]hexan-3-yl)(1-methyl-3-(thiazol-4-yl)-1H-pyrazol-5-yl)methanone]
EC50 (RSV-A2-GFP virus; [3]): < 0.01 µM | EC50 (hMPV-GFP virus; [4]): 0.01 to 0.1 µM
